Measurements taken from patent US4990518A, “Pharmacologically active heteroaryl substituted imidazo (4,5-c) pyridines” (G. D. Searle & Co., priority 1989, dated 1991).

Legend:
[1] = biological target: PAF receptor (Human Platelet Membrane Receptors) (Homo sapiens, UniProt P25105)
Experimental: Inhibition of ^3 H-PAF Binding to Human Platelet Membrane Receptors
Receptor Preparation: Ten units of in-dated human packed platelets, each containing 45-65 ml platelet rich-plasma, were purchased from a commercial blood bank. Disposable plasticware was used throughout for receptor preparation. The units were pooled and a 1 ml aliquot was removed for determination of platelet concentration, using a Coulter Counter. […] Protein content was determined by a fluorescamine protein assay.
Assay Methods: Receptor Characterization--Each receptor preparation was evaluated to determine the number of receptor populations, the number of PAF receptor equivalents/mg protein and the dissociation constant (KD) for PAF binding. This required 2-3 experiments in which the protein concentration was held constant and the ^3 H-PAF ligand concentration was varied from approximately 0.10-2.5 nM and the data was analyzed by Scatchard methodology. […]
Assay Methods: Routine Assay of Compounds--The compounds were weighed precisely and solubilized in quantities of DMSO such that a 5 μl aliquot in the incubate would deliver the desired compound concentration. Compounds tested for the first time in this assay were evaluated at a concentration of 50 μM in the incubation medium. […]

[2] = tested on: PAF-induced aggregation of washed rabbit platelets; test: PAF-induced platelet aggregation; type: cell-based; conditions: Oryctolagus cuniculus, antagonist 60 sec before PAF (0.2 nM to 0.2 μM), read 60 sec after PAF
Experimental: (§1) PAF-induced platelet aggregation and secretion: Washed, [^3 H]serotonin labeled rabbit platelets were prepared as previously described in COX, C. P , J. LINDEN and S. I. SAID: VIP elevates platelet cyclic AMP (cAMP) levels and inhibits in vitro platelet activation induced by platelet-activating factor (PAF). Peptides 5:25-28, 1984, and maintained in an atmosphere of 5% CO2 at 37° C. until used in the bioassay. Aliquots of platelets (2.5×10^8 /ml) were incubated with either an antagonist of PAF or the appropriate vehicle for 60 sec prior to the addition of PAF (0.2 nM to 0.2 μM). Aggregation was continuously monitored on a strip-chart recorder and recorded as the height of the tracing at 60 sec after the addition of PAF. Secretion of [^3 H] serotonin was measured in a sample of the platelet suspension removed at 60 sec after the addition of PAF. The percent inhibition of aggregation and secretion was calculated by comparing antagonist-treated platelets with the appropriate vehicle-treated control platelets. Each combination of antagonist and PAF was repeated using different platelet preparations. IC50 values were determined by inspection of the dose-response curves.

[3] = tested on: PAF-induced secretion of [^3 H]serotonin-labeled rabbit platelets; test: PAF-induced platelet secretion ([^3 H]serotonin); type: cell-based; conditions: Oryctolagus cuniculus, washed rabbit platelets, antagonist 60 sec before PAF (0.2 nM to 0.2 μM), read 60 sec after PAF
Experimental: as §1

PAF receptor (Human Platelet Membrane Receptors), sequence (P25105 whole entry): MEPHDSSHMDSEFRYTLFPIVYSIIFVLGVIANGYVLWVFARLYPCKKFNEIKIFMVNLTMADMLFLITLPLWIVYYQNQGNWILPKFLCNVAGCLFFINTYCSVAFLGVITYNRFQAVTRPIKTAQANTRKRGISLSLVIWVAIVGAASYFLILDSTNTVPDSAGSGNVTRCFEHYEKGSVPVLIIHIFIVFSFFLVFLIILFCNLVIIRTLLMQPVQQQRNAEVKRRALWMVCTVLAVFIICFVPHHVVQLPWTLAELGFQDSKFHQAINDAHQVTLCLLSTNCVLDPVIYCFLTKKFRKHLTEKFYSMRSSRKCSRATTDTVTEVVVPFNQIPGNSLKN

| SMILES | IC50 [1] [µM] | IC50 [2] [µM] | IC50 [3] [µM] | inhibition at 50 µM ([1]; read-out: inhibited ^3 H-PAF binding (triazolam compound inhibition control)) [%] |
| --- | --- | --- | --- | --- |
| O=C(c1ccc(Cn2ccc3ncnc-3c2)nc1)N(C1CCCC1)C1CCCC1 [Example 1, N,N-dicyclopentyl-6-(5H-imidazo[4,5-c]pyridin-5-yl-methyl)-3-pyridinecarboxamide] | 0.88 |  |  |  |
| CN(C(=O)c1ccc(Cn2ccc3ncnc-3c2)o1)C1CCCCC1 [Example 2, N-cyclohexyl-5-[(5H-imidazo[4,5-c]pyridin-5-yl)methyl]N-methyl-2-furancarboxamide] |  | ~100 | 50 |  |
| O=C(c1ccc(Cn2ccc3ncnc-3c2)o1)N(C1CCCCC1)C1CCCC1 [Example 3] |  | 10 to 100 | 2.8 |  |
| Cc1nnc2n1-c1ccc(Cl)cc1C(c1ccccc1Cl)=NC2 [Triazolam, triazolam, reference compound] |  |  |  | ~50 |
